The results in this text go back to ChEMBL document CHEMBL1201862, “PubChem BioAssay data set” (2004).

What all share (assay): NCI-60 cell line screen, 48 h
The subject of test [1] is BT-549.
The subject of test [2] is DMS-114.
The test system of test [3] is DMS-273.
The test system of test [4] is KM-20L2.
For test [5], the system named is LXFL 529.
Test [6] has as its system SNB-78.
In test [7] the test system is XF498.

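96-well plates; 48 h exposure; 5 concentrations. Endpoints by linear interpolation between flanking doses. Not reached: highest tested concentration assigned. GI50 marks 50% less growth.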 Active and inactive are the calls of the source. Rule as the data show it: active = GI50 up to about 1.1 µM and inactive = higher. Where only a bound is given, the exact number is not on record here.

For `N#CC1C=Cc2ccccc2N1C(=O)Oc1ccccc1` (configuration not stated), the GI50 in test [1] is 53.5 µM (inactive).

As to `Nc1nc(N)c2nc(CNc3ccc(C(=O)O)cc3)[nH]c2n1`, in test [1], the GI50 is > 100 µM (inactive).

Turning to `COc1cc(C(=O)OC2CC34CCNC35CC(OC5(OC)C2O)c2cc3c(cc24)OCO3)ccc1O` (configuration not stated), in test [1], the GI50 is > 100 µM (inactive).

Regarding `CN(C)CCNC(=O)c1ccc(Cl)c2c(Nc3ccc(S(=O)(=O)N=C(N)N)cc3)c3ccccc3nc12`, the GI50 was 0.993 µM (active) in test [2]; 1.79 µM (inactive) in test [3]; 5.53 µM (inactive) in test [4]; 3.94 µM (inactive) in test [5]; 12.1 µM (inactive) in test [6]; 4.51 µM (inactive) in test [7].

`CSc1nc(-c2cc3c(c(SC)n2)CCCCC3)cc2c1CCCCC2`: in test [1], the GI50 is > 100 µM (inactive).

Turning to `C=CCN(CC=C)CC(C(C)=O)C(c1ccccc1)c1c(O)c2ccccc2oc1=O` (configuration not stated), the GI50 in test [2] was > 100 µM (inactive); in test [3], > 100 µM (inactive); in test [4], 82.8 µM (inactive); in test [5], > 100 µM (inactive); in test [6], > 100 µM (inactive); in test [7], > 100 µM (inactive).

On to `O=C1OC(c2ccccc2)=N/C1=C\c1ccc(F)cc1`, for which the GI50 in test [1] is 75.3 µM (inactive).

For the compound `Cc1cnc2nc(-c3ccc(F)cc3)cc(O)c2c1`, the GI50 in test [1] was > 100 µM (inactive).

Take `CCCCCCCCCCCCCCCCNc1ccc2c(c1)OCCOCCOCCOCCO2`: the GI50 in test [1] is 3.44 µM (inactive).

In the case of `Cc1ccc(C(=O)/C=C2\Nc3c(c(=O)oc4ccccc34)N=C2NC23CC4CC(CC(C4)C2)C3)cc1`, the GI50 in test [2], in test [3], in test [4], in test [5] and in test [7] was > 100 µM (inactive) each time.

As for `CC(=O)Oc1cc(Cl)c(C)c2c1[C@H]1CC[C@]3(C)[C@@H](OC(C)=O)CC[C@H]3[C@@H]1CC2`, the GI50 in test [1] is > 100 µM (inactive).

With `Nc1ccc2nc3ccc(N)cc3[n+](-c3ccccc3)c2c1`, the GI50 in test [1] was 92.7 µM (inactive).

Consider `Nc1nc(N)c2c(n1)NC(c1ccccc1)CC(/C=C/c1ccc(Cl)cc1)=N2` (configuration not stated), for which, in test [1], the GI50 is 17.5 µM (inactive).

As to `CC1=CC=CC(C)(C)CC1(O[Si](C)(C)C)C(F)(F)F` (configuration not stated), the GI50 in test [1] is > 100 µM (inactive).

Regarding `N=c1oc2cc(O)ccc2cc1C(=O)Nc1ccccn1`, the GI50 in test [1] was 73.6 µM (inactive).

Take `Cc1c(C)c2c(c(N)c1C#N)C(=O)N(Cc1ccc(S(N)(=O)=O)cc1)C2=O`: in test [1], the GI50 is 19.4 µM (inactive).

On to `CC(C)(C)c1ccc(CN2CCN(C(c3ccccc3)c3ccc(Cl)cc3)CC2)cc1` (configuration not stated), for which the GI50 in test [1] was > 100 µM (inactive).

For the compound `c1ccc2c[n+](CCCC[n+]3ccc4ccccc4c3)ccc2c1`, the GI50 in test [1] was > 100 µM (inactive).

In the case of `CC(C)N(C(C)C)S(=O)(=O)CC12CCC(C/C1=N\O)C2` (configuration not stated), the GI50 in test [1] was > 100 µM (inactive).

`CN1CCc2c(sc3nc(Nc4ccccc4)n(N)c(=O)c23)C1`: the GI50 in test [1] was > 100 µM (inactive).

In the case of `COC(=O)N1C=CC2=C(C)C3Nc4ccccc4C3C(C)=C2C1` (configuration not stated), the GI50 in test [2] was 23 µM (inactive); in test [3], 0.301 µM (active); in test [4], 0.697 µM (active); in test [5], 0.953 µM (active); in test [6] it was 0.546 µM (active); in test [7] it was 2.48 µM (inactive).

For `COc1ccc2c(CCNS(=O)(=O)c3ccccc3)c(C(C)=O)[nH]c2c1`, the GI50 in test [1] was 33.8 µM (inactive).

Regarding `COc1cc(/C=N\O)nc(-c2ccccn2)c1`, in test [1], the GI50 is 1.5 µM (inactive).

For `NCc1nnn(Cc2ccccc2)c1N`, the GI50 in test [1] is > 100 µM (inactive).

As to `COc1cc2cc(C(=O)N3CC(CCl)c4c3cc(NC(=O)C(C)(C)c3ccccc3[N+](=O)[O-])c3ccccc43)[nH]c2c(OC)c1OC` (configuration not stated), the GI50 in test [1] was 8.87 µM (inactive).

For the compound `O=C1CSC(c2c[nH]c3ccccc23)N1c1ccccc1[N+](=O)[O-]` (configuration not stated), the GI50 in test [1] is > 100 µM (inactive).

As for `O=C(Nn1c(-c2ccccc2)nc2ccccc2c1=O)c1ccc(O)cc1`, in test [1], the GI50 is > 100 µM (inactive).

With `COc1cc(C2C3=C(COC3=O)OC(C)(C)Oc3cc4c(cc32)OCO4)cc(OC)c1OC` (configuration not stated), the GI50 in test [1] is 6.67 µM (inactive).

Take `N#Cc1c2c(c(Cl)n3c1nc1ccccc13)CCCC2`: the GI50 in test [2] was 1.86 µM (inactive); in test [3], 1.09 µM (active); in test [4] it was 2.49 µM (inactive); in test [6], 3.89 µM (inactive); in test [7] it was 2.14 µM (inactive).

Consider `O=C(/C=C/c1ccccc1)CCC1C(=O)NC(=S)NC1=O`, for which, in test [1], the GI50 is > 100 µM (inactive).

For the compound `COC(=O)c1ccccc1C1CN=NC12Cc1c(C)cc(C)cc1C2=O` (configuration not stated), the GI50 in test [1] is > 100 µM (inactive).

With `CCOc1ccccc1NC(=O)C1=C(C)NC(C)=C(C(=O)Nc2ccccc2OCC)C1c1ccc2c(c1)OCO2`, the GI50 was 16.9 µM (inactive) in test [2]; 26.4 µM (inactive) in test [4]; 17.9 µM (inactive) in test [5]; 24.6 µM (inactive) in test [6]; 12.8 µM (inactive) in test [7].

With `Nn1c(=O)n(Cc2ccccc2)n(-c2ccccc2)c1=O`, the GI50 in test [3], in test [5], in test [6] and in test [7] was > 100 µM (inactive) in each case.

For `COc1cc2c[n+](C)c3c(c2cc1OC)Cc1cc2c(cc1-3)OCO2`, in test [1], the GI50 was 90.2 µM (inactive).

With `CC[C@H]1C=CCC[C@@]2(C[C@@H]3CC[C@@H]4[C@H](C(=O)OCCCCCCCCCCCCCCCC(=O)O)[C@]5(CCC[C@@H](C)O5)NC(=[N+]34)N2)O1` [CRAMBESCIDIN 657], in test [1], the GI50 was 0.314 µM (active).

As to `O=C1CC(=O)NC(NNS(=O)(=O)c2ccccc2)=N1`, in test [1], the GI50 was > 100 µM (inactive).

For the compound `CCN1C/C(=C\c2ccc(Cl)cc2)c2[nH]c(=O)c(C#N)c(-c3ccc(Cl)cc3)c2C1`, the GI50 in test [1] was > 100 µM (inactive).

Take `N#CCC(=O)Nn1c(CC#N)nnc1Cc1ccccc1`: the GI50 in test [1] is > 100 µM (inactive).

In the case of `O=C(O)CN(CC(=O)O)Cc1ccn(-c2cccc(-n3ccc(CN(CC(=O)O)CC(=O)O)n3)n2)n1`, the GI50 in test [1] was > 100 µM (inactive).

As to `O=C1/C(=C/c2ccc([N+](=O)[O-])cc2)CCCc2ccccc21`, the GI50 in test [1] was > 100 µM (inactive).

As for `CC1=NN(C(=O)c2ccccc2O)C(=O)/C1=C/c1ccccc1O`, the GI50 in test [1] is 0.438 µM (active); in test [2], 0.0853 µM (active); in test [4], 11.5 µM (inactive); in test [5], 0.0573 µM (active); in test [7], 0.365 µM (active).

For `COC1=CC(=O)c2c(c(-c3nc(C)cs3)cn2C)C1=O`, in test [1], the GI50 is 3.97 µM (inactive).

Regarding `COc1ccc2nc3ccc(OC)cc3c(SCCCl)c2c1`, in test [1], the GI50 was 51.4 µM (inactive).

On to `N#CI1OC(C(F)(F)F)(C(F)(F)F)c2ccccc21`, for which the GI50 in test [1] was 19.6 µM (inactive).

On to `CCOC(=O)/C=C\C(C#N)(C#N)/N=C/c1ccsc1`, for which the GI50 in test [1] was 5.42 µM (inactive).

Regarding `CC(C)OP(=O)(OC(C)C)/C(C#N)=C/c1ccco1`, the GI50 in test [1] is > 100 µM (inactive).

`COc1cccc(-c2nc(O)c3ccccc3n2)c1`: the GI50 in test [1] was 24.8 µM (inactive).

Turning to `O=C1CC(C(=O)N2CCCCC2)n2c(=O)n(-c3ccccc3)c(=O)n2C1` (configuration not stated), in test [1], the GI50 is > 100 µM (inactive).

`CC1=CP(=O)(OC(C)C)CC(C)=C1Cl` (configuration not stated): the GI50 was > 100 µM (inactive) in test [2]; 98.4 µM (inactive) in test [3]; > 100 µM (inactive) in test [4]; > 100 µM (inactive) in test [5]; > 100 µM (inactive) in test [6].
